Series [1] relates to MDA-MB-231 cells. As to the kind of experiment: Cell viability assay, MDA-MB-231. It is filed as cell-based. The note with it: Homo sapiens, Figure 4E. How it is done:
(§1) Either 1 × 10^3–4.8 × 10^3 or 4 × 10^2–1.2 × 10^3 cells were seeded to each well of 96- or 384-well white polystyrene flat-bottomed plates (3610 or 8804BC, Corning) in 100 μL or 30 μL media per well, respectively. The concentrations used were experimentally determined to ensure logarithmic growth during the duration of the experiment and prevent adverse effects on cell growth by DMSO exposure. The plates were incubated at 37°C in 5% CO2 for 24 h before treatment. Stock solutions of test compounds (10 mM in DMSO) in nine 3-fold serial dilutions were dispensed via pintool (Biomek). The final concentration of DMSO was 0.3% (v/v) in each well. […] Luminescence was recorded in an Envision plate reader (PerkinElmer). […]
(§2) For the CTG assay, 3 or 4 replicate assays were conducted for each experimental condition, and a minimum of 3 independent experiments were conducted for cellular assays. The mean luminescence of each experimental treatment group was normalized as a percentage of the mean intensity of untreated controls. EC50 values (μM) were calculated by Pipeline Pilot Software (Accelrys, Enterprise Platform, San Diego, CA, United States). EC50 values (μM) from the viability assay were calculated from dose response curve-fitting via non-linear regression by using GraphPad Prism (Version 7.0, San Diego, CA, United States). […]

The subject of a further series is SUM-190 cells. Nature of the series: Cell viability assay, SUM-190. The conditions noted are these: Homo sapiens, SUM190; Figure 4E. It is filed as cell-based. How it is done:
as §1, §2

A further series has as its system KOPN-8 cells. Nature of the series: Cell Titer Glo viability assay, KOPN-8. The note with it: Homo sapiens, 72-h treatment. It is filed as cell-based. How it is done: (§3) Either 1 × 10^3–4.8 × 10^3 or 4 × 10^2–1.2 × 10^3 cells were seeded to each well of 96- or 384-well white polystyrene flat-bottomed plates (3610 or 8804BC, Corning) in 100 μL or 30 μL media per well, respectively. The concentrations used were experimentally determined to ensure logarithmic growth during the duration of the experiment and prevent adverse effects on cell growth by DMSO exposure. The plates were incubated at 37°C in 5% CO2 for 24 h before treatment. Stock solutions of test compounds (10 mM in DMSO) in nine 3-fold serial dilutions were dispensed via pintool (Biomek). The final concentration of DMSO was 0.3% (v/v) in each well. […] Luminescence was recorded in an Envision plate reader (PerkinElmer).
as §2
(Cellular ATP, detected with luciferase, serves as a proxy for viable cell number.)

The test system of the next series is Sup-B15 cells. Nature of the series: Cell Titer Glo viability assay, Sup-B15. It is filed as cell-based. The note with it: Homo sapiens, 72-h treatment. How it is done: as §3, §2
The test system of another series is Uocb-1 cells. Nature of the series: Cell Titer Glo viability assay, Uocb-1. It is filed as cell-based. The conditions noted are these: Homo sapiens, UoC-B1, 72-h treatment. How it is done: as §3, §2
Series [2] deals with additional cancer cellular models. As to the kind of experiment: Cell viability, additional cancer cellular models. It is filed as cell-based. The note with it: Supplementary Figure S2. The procedure:
as §3, §2

For series [3], the system named is SUM-149 cells. As to the kind of experiment: Cell cycle assay (PI, flow cytometry). It is filed as cell-based, human. The note with it: 48 h. The procedure:
SUM-149 cells were treated for 48 h with EP, then collected and washed in 1X PBS. The cells (5 × 10^5) were fixed and permeabilized in 70% ethanol at -20°C until further analysis. To measure the DNA content, the cells were washed and resuspended in 150 μL of PBS buffer then incubated in 100 μL of 100 μg/mL RNase A (MilliporeSigma, Burlington, MA, United States) for 15 min at RT, then 250 μL of 50 μg/mL Propidium Iodide (MilliporeSigma) was added. Samples were incubated at RT for 10 min and analyzed on a BD FACS Canto II flow cytometer (BD Biosciences, San José, CA, United States). Data were analyzed by using FlowJo software (V10, FlowJo, LLC, Ashland, OR, United States).

The test system of series [4] is MDA-MB-231 cells. As to the kind of experiment: ApoTox-Glo Triplex assay, MDA-MB-231. It is filed as cell-based, human. The procedure:
Cells (9.5 × 10^4/well in 75 μL of fresh medium) were dispensed in 96-well black flat bottom (8807BC, Corning) plates. The cells were incubated for 12 h at 37°C and then treated with compounds (25 μL) for 24 h. DMSO was used as a negative control, and staurosporine was used as the positive control. […] Then, the Caspase-Glo® 3/7 Reagent was added; plates were mixed briefly by orbital shaking (300-500 rpm for ∼30 s), followed by an additional 30 min incubation at RT. Then luminescence, which correlates with caspase 3/7 activation, was recorded with a plate reader to […] apoptosis induction.

In series [5] the test system is MDA-MB-231 cells. Nature of the series: De novo in-cell protein synthesis (click assay). It is filed as cell-based, human. The conditions noted are these: 2 h; EP 20 μM. The procedure: First, 2.5 × 10^4 cells/well were seeded in 8-well μ-slides (Ibidi®, #80826) and incubated at 37°C for 12 h. The cells were treated with vehicle, compounds Ganoderic acid A or EP, or cycloheximide (positive control) for 2 h to determine protein synthesis as nascent proteins generated using Biovision’s EZClick^TM Global Protein Synthesis Assay Kit, (#K715-100, Milpitas, CA, United States). The assay includes a robust chemical method based on an alkyne containing o-propargyl-puromycin (OP-puro) probe, which stops translation by forming covalent conjugates with nascent polypeptide chains. Truncated polypeptides are rapidly turned over by the proteasome and can be detected based on the subsequent click reaction with a fluorescent azide. The reaction was conducted according to the manufacturer’s protocol. Cells were imaged at 20× with a Nikon C2 scanning confocal microscope, and the whole image montage was quantified by using Gen5 Software and Lionheart^TM FX Automated Microscope (BioTek, Winooski, VT, United States).

In series [6] the test system is SUM-149 cells. As to the kind of experiment: Cell migration assay (Boyden chamber). It is filed as cell-based, human. The conditions noted are these: 10 μM, 72 h. How it is done:
Cell migration and invasion were measured by using Corning® FluoroBlok^TM Cell Culture Inserts and performing BD BioCoat Matrigel invasion assays (BD Biosciences, San José, CA, United States) as described in [Martinez-Montemayor et al. (2011)] and [Suarez-Arroyo et al. (2016)].

Series [7] is described as follows: Solubility in DMSO or water. The note with it: unless warmed up to 30°C.

The molecule `CC(C)[C@@H](C)/C=C/[C@@H](C)[C@H]1CC[C@@H]2[C@]1(C)CC[C@H]1[C@]23C=C[C@]2(C[C@@H](O)CC[C@]12C)OO3` [EP, ergosterol peroxide] returned a half-maximal effective concentration (EC50) in the series with MDA-MB-231 cells [1] of 19 µM. Moreover, the response with SUM-190 cells was half-maximal at 43 µM (EC50). In the series with KOPN-8 cells, it took 22.4 µM to reach a half-maximal effect (EC50). The molecule further gave an EC50 with Sup-B15 cells of 9.86 µM. In the series with Uocb-1 cells, this molecule had an EC50 of 13.6 µM. Also, in series [2], the concentration for a half-maximal effect (EC50) is 7 to 22 µM. In addition, in the series on SUM-149 cells [3] (20μM), the “percentage of cells in G0” value is reported as 1.7%, the “percentage of cells in G1” value came to 81%, the “percentage of cells in G2/M” value is given as 9.8% and the “percentage of cells in S” value turned out to be 5.4%. Further, in the series on SUM-149 cells [3] (vs vehicle), the “increase in percentage of cells in G1 phase” value is reported as ~20% and the “reduction of the percentage of cells in G2/M” value is recorded as ~10%. The “cytotoxicity by membrane integrity” value with MDA-MB-231 cells [4] (MDA-MB-231) is listed as “increased cytotoxicity”. Besides, in the series on MDA-MB-231 cells [4] (MDA-MB-231, 24 h), the “caspase 3/7 activity” value is “increase caspase 3/7 activity” and the “viability (GF-AFC)” value is on record as “decrease viability”. For the same molecule, in the series with MDA-MB-231 cells [5], the “de novo protein synthesis inhibition” value is “do not inhibit”. Also, in the series with SUM-149 cells [6], the cancer cell migration result is “decreases cancer cell migration”. The “solubility properties in DMSO or water” value in [7] is “poor”.

Usually EC50 stands for the concentration that produces a half-maximal response. Low readings indicate higher potency in that assay, high ones lower potency in that assay.

These data come from publication PMC6389703, “Identification of Biologically Active Ganoderma lucidum Compounds and Synthesis of Improved Derivatives That Confer Anti-cancer Activities in vitro” (Frontiers in Pharmacology, 2019).
